Experimental data published in US9034914B2, “Pharmaceutical composition comprising rotigotine salts (acid or Na), especially for iontophoresis” (UCB Pharma GmbH, priority 2009, dated 2015).
Counter-ions that a name gives are not always drawn. Like-named read-outs stand apart in the source and are kept apart here. Marks after values point to notes of the source that are not given here.

Assays:
[1] = passive delivery, patch size 10 cm^2, estimated to deliver 2 mg in 24 h; cited from earlier work
[2] = Maximum (saturation) solubility in 10 mM citric buffer, HPLC assay; type: physicochemical; details: for solubility at 48 h: 10 mM citric buffer, thermodynamic from solid
Method: In order to compare the maximum solubility of pharmaceutically acceptable salts of rotigotine, e.g. rotigotine.H3PO4, with rotigotine.HCl, the solubility studies of rotigotine.salts were carried out as described by Nugroho et al. (Pharm. Res. 21 (2004), 844-855), which is incorporated herein by reference, who determined the solubility of rotigotine.HCl. Briefly, rotigotine.salt was solubilized in 10 mM citric buffer at pH 4, 5 and 6 with and without the presence of NaCl (at room temperature). Subsequent adjustment of pH in each test tube was performed by alternating adding small quantities of 1M NaOH under continuous shaking and subsequent pH measurements, until the pH of each solution had stabilized at the original buffer value. Each solution was shaken for an additional 48 hours, after which each solution was centrifuged and filtered. The concentration in each solution was determined by HPLC. Room temperature or ambient as used in the present application is to be understood to apply to a range from 18° C. to 25° C., preferred is about 20° C.
The maximum solubilities of rotigotine hydrochloride (abbreviated as Ro.HCl) and rotigotine hydrophosphate (abbreviated as rotigotine.H3PO4 or Ro.H3PO4) have been investigated as a function of pH in a number of solvents (table.1). Ro.H3PO4 was dissolved in the indicated buffer upon which the pH of the formed solution was adjusted to the target value by addition of sodium hydroxide solution. […] The drug was assayed by HPLC analysis in the filtered solution.
• Column: Merck Superspher 60 RP select B, length: 7.5 cm, column internal diameter: 4 mm, particle size: 5 μm • Mobile phase: 60% (v/v) water, 40% (v/v) acetonitrile 0.05% (v/v) methanesulfonic acid • Flow: 1.0 ml/min • Injection volume: collected fractions: 50 μl, diluted donor solutions: 4 μl • Column temperature: ambient • Detection: fluorescence, λex=276 nm, λem=302 nm

[3] = type: in vitro ADME, human; details: for steady state flux ± s.d., iontophoresis stage / Mean steady state flux ± sd: 9 h
Method: The preparation of human stratum corneum (HSC) was performed according to the method described previously (Nugroho et al., (Nugroho et al., J. Control Release (2005) 103, 393-403) which is incorporated herein by reference. Briefly, within 24 hours after surgical removal of the human skin residual subcutaneous fat was removed. Dermatomed human skin (DHS) was obtained by dermatoming the skin to a thickness of about 300 μm. In order to obtain HSC, DHS was incubated with the dermal side on Whatman paper soaked in a solution of 0.1% trypsin in 150 mM phosphate buffered saline (PBS) pH 7.4 (NaCl: 8 g·L^−1, Na2HPO4: 2.86 g·L^−1, KH2PO4: 0.2 g·L^−1, KCl: 0.19 g·L^−1) overnight at 4° C. and subsequently for 1 hour at 37° C. after which HSC was peeled off from the underlying viable epidermis and dermis. HSC was subsequently washed in a 0.1% trypsin inhibitor solution in Millipore water and several times in water and stored in a desiccator in a N2 environment.
The in vitro transport studies were done by using a 9-channel computer controlled power supply in order to provide a constant direct current (Electronics Department, Gorlaeus Laboratories, Leiden University, The Netherlands) during iontophoresis. The system was equipped with differential input channels per current source enabling on-line measurement of the electric resistance across HSC in each diffusion cell. Ag/AgCl was used as driver electrode pair. All transport experiments were carried out, using a three chamber continuous flow through cell as described elsewhere (Nugroho et al., J. Control Release (2005) 103, 393-403). The donor formulation, buffered with a 10 mM citric buffer, was applied at the anodal side. The cathodal chamber was filled with PBS pH 7.4. The acceptor phase, maintained at 32° C., was continuously perfused with PBS pH 6.2 (NaCl: 8 g·L^−1, KCl: 0.19 g·L^−1, Na2HPO4.2H2O: 0.43 g·L^−1, KH2PO4: 0.97 g·L^−1) at a flow rate of 7.0 ml·h^−1. Unless described elsewhere, the following protocol for the iontophoresis experiments was used: 6 hours of passive diffusion, followed by 9 hours of iontophoresis with a current density of 500 μA·cm^−2 and 5 hours of passive diffusion. Samples were collected every hour with an automatic fraction collector (ISCORetriever IV, Beun De Ronde B V, Abcoude, The Netherlands). The specific conditions of the individual transport studies are described below.
Prior to and at the end of a transport study the pH of donor and acceptor compartment was measured. All samples of the iontophoretic transport studies were analyzed by RP-HPLC using a Superspher® 60 RP-select B, 75 mm-4 mm column (Merck KGaA, Darmstadt, Germany). Rotigotine was detected using a scanning fluorescence detector (Waters™ 474, Millipore, Milford, Mass., USA) at excitation and emission wavelengths of 276 and 302 nm. Acetaminophen was detected using a UV detector (Dual λ Absorbance Detector 2487, Waters, Milford, USA) at a wavelength of 254 nm. Filtered and degassed mobile phase contained 60% H2O (v/v), 40% ACN (v/v) and 0.05% methanesulfonic acid (v/v). The injection volume was 50 μL and the flow rate was set to 1.0 mL·min^−1.
To calculate the steady state flux during passive and iontophoretic transport, the cumulative flux of the transport was plotted as a function of time. The steady state flux was estimated from the linear part of the slope of this plot according to the permeation lag-time method^7. All data are presented as mean±standard deviation (s.d.). When a statistical analysis was performed comparing only 2 groups, a Students t-test was used. When 3 or more groups were compared, a 1-way ANOVA statistical analysis was executed. If the overall p-value was less than 0.05, a bonferonni post-test was applied to compare different groups. For all statistical analysis a significance level of p<0.05 was used. […]

[4] = cited from earlier work; for Solubility: adapted from Nugroho et al.
[5] = pH 5; cited from earlier work
[6] = 20 cm^2 patch containing 10 mg rotigotine hydrochloride, TTS of WO 94/07468; cited from earlier work

CCCN(CCc1cccs1)[C@H]1CCc2c(O)cccc2C1 [rotigotine, (−)-5,6,7,8-tetrahydro-6-[propyl-[2-(2-thienyl)ethyl]-amino]-1-naphthalenol]
maximum plasma concentration (Cmax) [1]: 0.215 ng/mL
time of maximum plasma concentration [1]: 16 h

CCCN(CCc1cccs1)[C@H]1CCc2c(O)cccc2C1.O=P(O)(O)O [rotigotine.H3PO4, rotigotine dihydrogen phosphate]
solubility at 48 h ([2]; aqueous buffer, pH range of about 4 to 5.5, read-out: water solubility): 34 to 83 mM
solubility at 48 h ([2]; pH 4, aqueous buffer, pH 4, 68 mM NaCl, n = 2-3, read-out: Solubility): 80.1 mM
solubility at 48 h ([2]; pH 4, aqueous buffer, pH 4, no NaCl, n = 2-3, read-out: Solubility): 83.5 mM
solubility at 48 h ([2]; pH 5, aqueous buffer, pH 5, 68 mM NaCl, n = 2-3, read-out: Solubility): 43 mM
solubility at 48 h ([2]; pH 5, aqueous buffer, pH 5, no NaCl, n = 2-3, read-out: Solubility): 41.9 mM
solubility at 48 h ([2]; pH 6, aqueous buffer, pH 6, 68 mM NaCl, n = 2-3, read-out: Solubility): 14.4 mM
solubility at 48 h ([2]; pH 6, aqueous buffer, pH 6, no NaCl, n = 2-3, read-out: Solubility): 15.7 mM
solubility fold higher compared to rotigotine-HCl ([2]; pH 4): 12 fold
solubility fold higher compared to rotigotine-HCl ([2]; pH 5): 7 fold
solubility fold higher compared to rotigotine-HCl ([2]; pH 6): 2 fold
effect of addition of NaCl on solubility ([2]; selected pH values 4, 5, 6, 68 mM NaCl, 2-way ANOVA p>0.05): did not affect significantly
time to reach steady state flux after current application ([3]; citric buffer pH 5, FIG. 3): within four hours
steady state flux ± s.d., passive stage ([3]; human, 6 h, 1.24 mg/ml, pH 6): 4.1 ± 1.9 μg/cm^2/h
steady state flux ± s.d., passive stage ([3]; human, 6 h, 1.28 mg/ml, pH 5): 0.5 ± 0.2 μg/cm^2/h
steady state flux ± s.d., passive stage ([3]; human, 6 h, 1.42 mg/ml, pH 6): 3.2 ± 0.2 μg/cm^2/h
steady state flux ± s.d., passive stage ([3]; human, 6 h, 1.46 mg/ml, pH 5): 0.9 ± 0.3 μg/cm^2/h
steady state flux ± s.d., passive stage ([3]; human, 6 h, 3.11 mg/ml, pH 5): 1.0 ± 0.1 μg/cm^2/h
steady state flux ± s.d., passive stage ([3]; human, 6 h, 4.13 mg/ml, pH 6): 9.3 ± 0.9 μg/cm^2/h
steady state flux ± s.d., passive stage ([3]; human, 6 h, 4.3 mg/ml, pH 6): 12.3 ± 0.9 μg/cm^2/h
steady state flux ± s.d., passive stage ([3]; human, 6 h, 6.95 mg/ml, pH 5): 2.3 ± 0.5 μg/cm^2/h
steady state flux ± s.d., passive stage ([3]; human, 6 h, 9.88 mg/ml, pH 5.5): 7.7 ± 0.5 μg/cm^2/h
steady state flux ± s.d., passive stage ([3]; human, 6 h, 15.09 mg/ml, pH 5): 3.6 ± 0.5 μg/cm^2/h
Flux ([3]; human, 6 h, 31.3 mM, pH 5.5): 24.4±1.9 nmol·cm^−2·h^−1
maximum passive flux close to saturation in the donor phase ([3]; human, 6 h, pH 5): 10.8±1.9 nmol·cm^−2·h^−1
maximum passive flux close to saturation in the donor phase ([3]; human, 6 h, pH 6): 24.9 nmol·cm^−2·h^−1
steady state flux ± s.d., iontophoresis stage ([3]; human, 1.24 mg/ml, pH 6): 26.4 ± 1.3 μg/cm^2/h
steady state flux ± s.d., iontophoresis stage ([3]; human, 1.28 mg/ml, pH 5): 20.0 ± 4.9 μg/cm^2/h
Mean steady state flux ± sd ([3]; human, 1.4 mg/ml, pH 5): 22.1 ± 2.5 μg/cm^2/h
steady state flux ± s.d., iontophoresis stage ([3]; human, 1.42 mg/ml, pH 6): 25.1 ± 3.3 μg/cm^2/h
steady state flux ± s.d., iontophoresis stage ([3]; human, 1.46 mg/ml, pH 5): 22.1 ± 2.5 μg/cm^2/h
Mean steady state flux ± sd ([3]; human, 3 mg/ml, pH 5): 26.0 ± 2.1 μg/cm^2/h
steady state flux ± s.d., iontophoresis stage ([3]; human, 3.11 mg/ml, pH 5): 26.0 ± 2.1 μg/cm^2/h
steady state flux ± s.d., iontophoresis stage ([3]; human, 4.13 mg/ml, pH 6): 43.0 ± 2.6 μg/cm^2/h
steady state flux ± s.d., iontophoresis stage ([3]; human, 4.3 mg/ml, pH 6): 47.1 ± 1.8 μg/cm^2/h
steady state flux ± s.d., iontophoresis stage ([3]; human, 6.95 mg/ml, pH 5): 33.7 ± 4.7 μg/cm^2/h
steady state flux ± s.d., iontophoresis stage ([3]; human, 9.88 mg/ml, pH 5.5): 47.9 ± 3.1 μg/cm^2/h
steady state flux ± s.d., iontophoresis stage ([3]; human, 15.09 mg/ml, pH 5): 41.5 ± 3.4 μg/cm^2/h
decrease in steady state flux resulting from the decrease in donor concentration ([3]; human, 24 h, pH 5): 10%
increase in maximum flux compared to rotigotine.HCl ([3]; human, pH 5): 170%
maximum iontophoretic flux ([3]; human, pH 5): 135.8±12.5 nmol·cm^−2·h^−1
time to reach steady state of passive transport ([3]; no current, prior to iontophoresis): ≤ 6 h
time to reach steady state flux after current application ([3]; pH 5.5, 31.3 mM, 68 mM NaCl, stepwise increase of current density): ≤ 6 h

CCCN(CCc1cccs1)[C@H]1CCc2c(O)cccc2C1 [rotigotine.HCl, rotigotine hydrochloride]
effect of addition of NaCl on solubility ([4]; 68 mM NaCl, results by Nugroho): reduced tremendously
Solubility ([4]; pH 4, 68 mM NaCl): 6.75 µmol/mL
Solubility ([4]; pH 4, no NaCl): 24.39^a,b μmol/ml
Solubility ([4]; pH 5, 68 mM NaCl): 6.35 µmol/mL
maximum solubility ([4]; pH 5, in the presence of 0.07 molar NaCl, previous attempts): 6.3 mM
Solubility ([4]; pH 5, no NaCl, hydrochloride): 22.4 µmol/mL
Solubility ([4]; pH 5, no NaCl, listed as Rotigotine•HCl, hydrochloride): 22.45^a,b μmol/ml
Solubility ([4]; pH 6, 68 mM NaCl): 6.52 µmol/mL
Solubility ([4]; pH 6, no NaCl): 15.87^b μmol/ml
maximum iontophoretic flux [5]: 80.2±14.4 nmol·cm^−2·h^−1
transport number [5]: 0.4%
average drug plasma levels [6]: around 0.15 ng/mL
